Data taken from patent publication US20260166039A1 (SCHRÖDINGER, INC., priority 2022, published 2026).

Molecular target: T1, Wee1 kinase domain (Homo sapiens, UniProt P30291)
T1 construct: Wee1 kinase domain was purchased from Carna (catalog #05-177); purchased Carna 05-177
Assay: Wee1 Kinase Biochemical Assay (ADP-Glo)
Settings: 1 nM Wee1 enzyme, 15 uM ATP, 4 hours at 25° C
Outline: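 Kinase domain (1 nM) incubated 4 h at 25 °C with 15 uM ATP and 2 ng/mL Poly(Lys,Tyr 4:1) in 40 mM Tris-HCl, 20 mM MgCl2, 0.1 mg/mL BSA, 2 mM DTT. ADP formation read by ADP-Glo luminescence; percent inhibition normalized to DMSO and saturating reference-inhibitor controls.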

T1 sequence (P30291 299-569 limits assumed): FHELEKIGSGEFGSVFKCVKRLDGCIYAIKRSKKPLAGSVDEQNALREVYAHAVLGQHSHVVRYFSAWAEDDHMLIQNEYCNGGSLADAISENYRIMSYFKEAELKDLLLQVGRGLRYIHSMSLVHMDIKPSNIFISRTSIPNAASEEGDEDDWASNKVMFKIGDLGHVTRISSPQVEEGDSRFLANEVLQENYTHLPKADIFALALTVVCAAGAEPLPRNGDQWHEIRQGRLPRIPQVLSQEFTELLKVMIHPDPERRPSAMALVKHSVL

| IC50 [nM] | SMILES |
| --- | --- |
| < 10 | CN1CCN(c2ccc(Nc3ncc4c(n3)N(c3cccnn3)[C@@H]3CC(C)(C)OC[C@]43C)cc2)CC1 (single isomer, unassigned) [Example 828] |
| < 10 | CC1(C)C[C@H]2N(c3cccc(N=S(C)(C)=O)n3)c3nc(Nc4cncc(C#N)c4)ncc3[C@@]2(C)CO1 (single isomer, unassigned) [Example 818] |

Same assay, conditions: Wee1 kinase domain, 15 uM ATP, ADP-Glo

| IC50 [nM] | SMILES |
| --- | --- |
| ≥ 1000 | CNCc1cccc(N2c3nc(Nc4ccc(C5(C)COC5)cc4)ncc3[C@]3(C)COC(C)(C)C[C@H]23)n1 (single isomer, unassigned) [Example 83] |
| ≥ 1000 | CNCc1cccc(N2c3nc(Nc4ccc([C@@H]5CCC(=O)N5C)nc4)ncc3[C@]3(C)COC(C)(C)C[C@H]23)n1 (single isomer, unassigned) [Example 95] |
| 10 to 100 | CNCc1cccc(N2c3nc(Nc4ccccc4)ncc3[C@]3(C)COC(C)(C)C[C@H]23)n1 (single isomer, unassigned) [Example 46] |
| 100 to 1000 | CN1CCC[C@H]1c1ccc(Nc2ncc3c(n2)N(c2cccc(N=S(C)(C)=O)n2)[C@H]2CC(C)(C)OC[C@@]32C)cn1 (single isomer, unassigned) [Example 215] |
| 10 to 100 | C[C@H]1COC(=O)N1c1cccc(N2c3nc(Nc4ccc([C@@]5(C)CCN(C)C5)cc4)ncc3[C@]3(C)COC(C)(C)C[C@H]23)n1 (single isomer, unassigned) [Example 348] |
| 100 to 1000 | CN1CC(c2ccc(Nc3ncc4c(n3)N(c3cccc(N=S(C)(C)=O)n3)[C@H]3CC(C)(C)OC[C@@]43C)cn2)C1 (single isomer, unassigned) [Example 193] |
| 100 to 1000 | CN1CC[C@@H](c2ccc(Nc3ncc4c(n3)N(c3cccc(N=S(C)(C)=O)n3)[C@H]3CC(C)(C)OC[C@@]43C)cc2)C1 (single isomer, unassigned) [Example 130] |
| 100 to 1000 | CN1C[C@H]2C[C@@H]1CN2c1ccc(Nc2ncc3c(n2)N(c2cccc(N=S(C)(C)=O)n2)[C@H]2CC(C)(C)OC[C@@]32C)cc1 (single isomer, unassigned) [Example 121] |
| 100 to 1000 | CNCc1cccc(N2c3nc(Nc4ccc5c(c4)C(=O)N(C)C5)ncc3[C@]3(C)COC(C)(C)C[C@H]23)n1 (single isomer, unassigned) [Example 31] |
| ≥ 1000 | CNCc1cccc(N2c3nc(Nc4ccc(C(C)(C)C(=O)N(C)C)cc4)ncc3[C@]3(C)COC(C)(C)C[C@H]23)n1 (single isomer, unassigned) [Example 75] |
| 10 to 100 | C[C@H]1COC(=O)N1c1cccc(N2c3nc(Nc4ccc(C5CNC5)cc4)ncc3[C@]3(C)COC(C)(C)C[C@H]23)n1 (single isomer, unassigned) [Example 308] |
| 100 to 1000 | CNCc1cccc(N2c3nc(Nc4ccc([C@@H]5CCOC5)cc4)ncc3[C@]3(C)COC(C)(C)C[C@H]23)n1 (single isomer, unassigned) [Example 37] |
| 100 to 1000 | CC1(C)C[C@@H]2N(c3cccc(N=S(C)(C)=O)n3)c3nc(Nc4ccc(C5CNC5)nc4)ncc3[C@]2(C)CO1 (single isomer, unassigned) [Example 191] |
| 100 to 1000 | C[C@H]1COC(=O)N1c1cccc(N2c3nc(Nc4ccc(N5CCN(C)CC5)nc4)ncc3[C@]3(C)COC(C)(C)C[C@H]23)n1 (single isomer, unassigned) [Example 240] |
| 10 to 100 | CNCc1cccc(N2c3nc(Nc4ccc(C(C)(C)C)cc4)ncc3[C@]3(C)COC(C)(C)C[C@H]23)n1 (single isomer, unassigned) [Example 74] |
| < 10 | CC1(C)C[C@H]2N(c3cccc(N=S(C)(C)=O)n3)c3nc(Nc4ccc5nccn5n4)ncc3[C@@]2(C)CO1 [Example 361, ((6-((4bR,8aR)-2-(imidazo[1,2-b]pyridazin-6-ylamino)-4b,7,7-trimethyl-4b,7,8,8a-tetrahydropyrano[3′,4′:4,5]pyrrolo[2,3-d]pyrimidin-9(5H)-yl)pyridin-2-yl)imino)dimethyl-l6-sulfanone] |
| 100 to 1000 | CN[C@@H](Cc1ccc(Nc2ncc3c(n2)N(c2cccc(N4C(=O)OC[C@@H]4C)n2)[C@H]2CC(C)(C)OC[C@@]32C)cc1)C(=O)O (single isomer, unassigned) [Example 320] |
| 10 to 100 | Cc1cc(Nc2ncc3c(n2)N(c2cccc(N=S(C)(C)=O)n2)[C@H]2CC(C)(C)OC[C@@]32C)ccc1[C@H]1CCNC1 (single isomer, unassigned) [Example 150] |
| 10 to 100 | CNCc1cccc(N2c3nc(Nc4ccc(N5C[C@H]6C[C@@H]5CO6)cc4)ncc3[C@]3(C)COC(C)(C)C[C@H]23)n1 (single isomer, unassigned) [Example 43] |
| 100 to 1000 | CN1CCN(c2ccc(Nc3ncc4c(n3)N(c3cccc(C(C)(C)O)n3)[C@H]3CC(C)(C)OC[C@@]43C)cc2)CC1 (single isomer, unassigned) [Example 3] |

Same assay, conditions: class symbols; 1 nM Wee1 enzyme, 15 uM ATP, 4 hours at 25° C.

| IC50 [nM] | SMILES |
| --- | --- |
| 10 to 100 | CC1(C)C[C@@H]2N(c3cccc(N4CCOC4=O)n3)c3nc(Nc4ccc([C@H]5CNC[C@H]5F)cc4)ncc3[C@]2(C)CO1 [Example 673, 3-(6-((4bS,8aS)-2-((4-((3S,4S)-4-fluoropyrrolidin-3-yl)phenyl)amino)-4b,7,7-trimethyl-4b,7,8,8a-tetrahydropyrano[3′,4′:4,5]pyrrolo[2,3-d]pyrimidin-9(5H)-yl)pyridin-2-yl)oxazolidin-2-one] |
| 10 to 100 | C[C@H]1CCC(=O)N1c1cccc(N2c3nc(Nc4cnn(C5CCN(C)CC5)c4)ncc3C3(C)COC(C)(C)CC23)n1 (stereo in doubt) [Example 555, (S)-5-methyl-1-(6-((4bS,8aS)-4b,7,7-trimethyl-2-((1-(1-methylpiperidin-4-yl)-1H-pyrazol-4-yl)amino)-4b,7,8,8a-tetrahydropyrano[3′,4′:4,5]pyrrolo[2,3-d]pyrimidin-9(5H)-yl)pyridin-2-yl)pyrrolidin-2-one] |
| 100 to 1000 | CNCc1cccc(N2c3nc(Nc4ccc(N5CCN(C)CC5)c(C)c4)ncc3[C@]3(C)COC(C)(C)C[C@H]23)n1 (single isomer, unassigned) [Example 447] |
| 10 to 100 | C[C@@H]1COC(=O)N1c1cccc(N2c3nc(Nc4ccc(N5CCN(C)CC5)cc4)ncc3[C@]3(C)COC(C)(C)C[C@H]23)n1 (single isomer, unassigned) [Example 588] |
| 100 to 1000 | CN1CC2(C1)CN(c1ccc(Nc3ncc4c(n3)N(c3cccc(C(C)(C)O)n3)[C@H]3CC(C)(C)OC[C@@]43C)cc1)C2 (single isomer, unassigned) [Example 444] |
| 100 to 1000 | CC1(C)C[C@@H]2N(c3cccc([C@@H]4CNCCO4)n3)c3nc(Nc4ccc(N5CCOCC5)cc4)ncc3[C@]2(C)CO1 [Example 736, (4bS,8aS)-4b,7,7-trimethyl-9-(6-((S)-morpholin-2-yl)pyridin-2-yl)-N-(4-morpholinophenyl)-4b,5,7,8,8a,9-hexahydropyrano[3′,4′:4,5]pyrrolo[2,3-d]pyrimidin-2-amine] |
| 100 to 1000 | CN1C[C@@H]2C[C@H]1CN2c1ccc(Nc2ncc3c(n2)N(c2cccc(N4CCCC4=O)n2)[C@H]2CC(C)(C)OC[C@@]32C)cc1 [Example 628, 1-(6-((4bS,8aS)-4b,7,7-trimethyl-2-((4-((1S,4S)-5-methyl-2,5-diazabicyclo[2.2.1]heptan-2-yl)phenyl)amino)-4b,7,8,8a-tetrahydropyrano[3′,4′:4,5]pyrrolo[2,3-d]pyrimidin-9(5H)-yl)pyridin-2-yl)pyrrolidin-2-one] |
| 100 to 1000 | CN1C[C@@H]2C[C@H]1CN2c1ccc(Nc2ncc3c(n2)N(c2cccc(C(C)(C)O)n2)[C@H]2CC(C)(C)OC[C@@]32C)cc1 (single isomer, unassigned) [Example 415] |
| < 10 | CC1(C)C[C@H]2N(c3cccc(N4CCOC4=O)n3)c3nc(Nc4ccc(N5CCNCC5)cc4)ncc3[C@@]2(C)CO1 (single isomer, unassigned) [Example 601] |
| 100 to 1000 | CC1(C)C[C@@H]2N(c3ccc4c(n3)[C@](C)(N)CC4)c3nc(Nc4ccc(N5CCOCC5)cc4)ncc3[C@]2(C)CO1 (single isomer, unassigned) [Example 563] |
| 10 to 100 | Cc1cc(Nc2ncc3c(n2)N(c2cccc(C(C)(C)O)n2)[C@H]2CC(C)(C)OC[C@@]32C)ccc1N1C[C@H]2C[C@@H]1CN2C (single isomer, unassigned) [Example 426] |
| 10 to 100 | CC1(C)C[C@@H]2N(c3cccc(C(C)(C)O)n3)c3nc(Nc4ccc(O[C@H]5CCNC5)cc4)ncc3[C@]2(C)CO1 (single isomer, unassigned) [Example 420] |
| 10 to 100 | CN1C[C@@H]2C[C@H]1CN2c1ccc(Nc2ncc3c(n2)N(c2cccc(C(C)(C)O)n2)[C@H]2CC(C)(C)OC[C@@]32C)cc1Cl (single isomer, unassigned) [Example 436] |
| 100 to 1000 | CN1CC[C@@H]2CN(c3ccc(Nc4ncc5c(n4)N(c4cccc(N6CCCC6=O)n4)[C@H]4CC(C)(C)OC[C@@]54C)cc3)C[C@@H]21 [Example 687, 1-(6-((4bS,8aS)-4b,7,7-trimethyl-2-((4-((3aR,6aR)-1-methylhexahydropyrrolo[3,4-b]pyrrol-5(1H)-yl)phenyl)amino)-4b,7,8,8a-tetrahydropyrano[3′,4′:4,5]pyrrolo[2,3-d]pyrimidin-9(5H)-yl)pyridin-2-yl)pyrrolidin-2-one] |
| < 10 | CC1(C)C[C@H]2N(c3cccc(N=S(C)(C)=O)n3)c3nc(Nc4ccc(N5CCN6CCC[C@H]6C5)cc4)ncc3[C@@]2(C)CO1 (single isomer, unassigned) [Example 507] |
| 10 to 100 | Cc1cc(Nc2ncc3c(n2)N(c2cccc([C@@H]4CCCN4)n2)[C@H]2CC(C)(C)OC[C@@]32C)ccc1N1CCOCC1 (single isomer, unassigned) [Example 530] |
| ≥ 1000 | CC1(C)C[C@@H]2N(c3ccc4c(n3)[C@@](C)(N)CC4)c3nc(Nc4ccc(N5CCOCC5)cc4)ncc3[C@]2(C)CO1 (single isomer, unassigned) [Example 566] |
